# Tests used:
# [1] = system: Mycobacterium tuberculosis; assay: AntiMycobacterium tuberculosis activity 2-week 7H9/ADC/Tw MIC (uM); assay type: functional; settings: 336 h
# [2] = system: Mycobacterium tuberculosis; assay: AntiMycobacterium tuberculosis activity 2-week Alamar Blue 7H9/ADC/Tw MIC (uM); assay type: functional; settings: 336 h
# [3] = system: Mycobacterium tuberculosis; assay: AntiMycobacterium tuberculosis activity 1-week 7H9/cholesterol/BSA/Tx MIC (uM); assay type: functional; settings: 168 h
# [4] = system: Mycobacterium tuberculosis; assay: (§1) AntiMycobacterium tuberculosis activity day 10 in 7H9/2.5mM butyrate/pH6/0.1mM nitrite MIC90 (uM); assay type: functional; settings: 240 h
# [5] = system: Mycobacterium tuberculosis; assay: AntiMycobacterium tuberculosis activity Non-Replicating form: Average MIC90 (uM); assay type: functional
# [6] = system: Mycobacterium tuberculosis; assay: AntiMycobacterium tuberculosis activity 2-week Alamar Blue 7H9/cholesterol/BSA/Tx MIC (uM); assay type: functional; settings: 336 h
# [7] = system: Mycobacterium tuberculosis; assay: AntiMycobacterium tuberculosis activity 1-week 7H9/ADC/Tw MIC (uM); assay type: functional; settings: 168 h
# [8] = system: Mycobacterium tuberculosis; assay: AntiMycobacterium tuberculosis activity day 21 in 7H9/2.5mM butyrate/pH6/0.1mM nitrite MIC90 (uM); assay type: functional; settings: 504 h
# [9] = system: Mycobacterium tuberculosis; assay: AntiMycobacterium tuberculosis activity 2-week 7H9/glucose/BSA/Tx MIC (uM); assay type: functional; settings: 336 h
# [10] = system: Mycobacterium tuberculosis; assay: AntiMycobacterium tuberculosis activity 1-week 7H9/DPPC/cholesterol/BSA/Tx MIC (uM); assay type: functional; settings: 168 h
# [11] = system: Mycobacterium tuberculosis; assay: AntiMycobacterium tuberculosis activity day 21 MIC99 in 7H9/2.5mM butyrate/pH6/0.1mM nitrite MIC99 (uM); assay type: functional; settings: 504 h
# [12] = system: Mycobacterium tuberculosis; assay: AntiMycobacterium tuberculosis activity 2-week 7H9/DPPC/cholesterol/BSA/Tx MIC (uM); assay type: functional; settings: 336 h
# [13] = system: Mycobacterium tuberculosis; assay: AntiMycobacterium tuberculosis activity 1-week 7H9/glucose/BSA/Tx MIC (uM); assay type: functional; settings: 168 h
# [14] = system: Mycobacterium tuberculosis; assay: as §1; assay type: functional; settings: 240 h; remark: listed apart in the source
# HepG2 [15] = assay: HepG2 CC50 (uM) Cytotoxicity; assay type: functional; settings: Homo sapiens
# [16] = system: Mycobacterium tuberculosis; assay: AntiMycobacterium tuberculosis activity 2-week GAST/Fe MIC (uM); assay type: functional; settings: 336 h
# [17] = system: Mycobacterium tuberculosis; assay: AntiMycobacterium tuberculosis activity 1-week GAST/Fe MIC (uM); assay type: functional; settings: 168 h
# [18] = system: Mycobacterium tuberculosis; assay: AntiMycobacterium tuberculosis activity Replicating form: Average MIC90 (uM); assay type: functional
# HepG2 [19] = assay: Cytotoxicity data HepG2 CC20 (uM); assay type: functional
# Plasmodium berghei = assay: Antimalarial activity: Liver Stage Plasmodium berghei sporozoite Luciferase assay: inhibition at 10 uM (%); assay type: functional
# Plasmodium falciparum [20] = assay: Antimalarial activity: Asexual Blood Stage Plasmodium falciparum 3D7 IC50 (uM); assay type: functional, organism-based
# Plasmodium falciparum [21] = assay: Antimalarial activity: Gametocytes Plasmodium falciparum NF54 Gametocytes Stage V: inhibition at 10 uM (%); assay type: functional
# Plasmodium falciparum [22] = assay: Antimalarial activity: Asexual Blood Stage Plasmodium falciparum W2 IC50 (uM); assay type: functional, organism-based
Structure (SMILES),MIC [1] [µM],MIC [2] [µM],MIC [3] [µM],MIC90 [4] [µM],MIC90 [5] [µM],MIC [6] [µM],MIC [7] [µM],MIC90 [8] [µM],MIC [9] [µM],MIC [10] [µM],MIC [11] [µM],MIC [12] [µM],MIC [13] [µM],MIC90 [14] [µM],CC50 (HepG2 [15]) [µM],MIC [16] [µM],MIC [17] [µM],MIC90 [18] [µM],other results
CCOc1ccc(OCC(=O)Nc2cc(C)cc(C)c2)cc1,> 50,> 50,50,> 50,65,> 50,≥ 50,> 50,> 50,50,> 50,> 50,50,> 50,> 100,4.7,3.13,82.3,
CCCc1ccc(S(=O)(=O)Nc2ccc(CN3CCN(CC4CC4)CC3)cc2)cc1,19,19,6.25,> 50,47.4,6.25,19,50,9.4,4.7,> 50,6.25,9.4,50,17.7,12.5,12.5,18.7,
N#Cc1nc(-c2ccccc2F)oc1NCCc1ccccc1,> 50,37,19,> 50,75.5,12.5,> 50,> 50,> 50,12.5,> 50,50,> 50,50,> 100,1.56,0.78,> 100,
COc1cccc(OCC(=O)c2ccc(Br)cc2)c1,50,25,12.5,25,> 100,50,19,25,50,19,50,50,19,12.5,> 100,9.4,9.4,> 100,
Cn1ccnc1CNCCS(=O)(=O)c1cccc(Nc2ccc(-c3cccc(F)c3)cn2)c1,> 50,> 50,25,> 50,> 100,37,50,> 50,> 50,12.5,> 50,≥ 50,19,> 50,46.1,25,25,> 100,
CC(C)(C(=O)Nc1ccc(F)cc1)n1cc(-c2ccccc2F)cn1,1.56,2.3,0.6,12.5,3.6,1.56,1.56,6.25,3.13,2.3,12.5,1.56,3.13,6.25,> 100,2.3,2.3,4.51,
Nc1ncnc2c1ncn2C[C@@H](O)[C@@H](O)C(=O)O [ERITADENINE],,,,,,,,,,,,,,,,,,,CC20 (HepG2 [19]): >80 µM
O=C(NCCN1CCCC1)c1cc(NCCCCN2CCC(F)(F)CC2)nc2ccc(Cl)cc12,,,,,,,,,,,,,,,,,,,inhibition (Plasmodium berghei): Series known to be active; IC50 (Plasmodium falciparum [20]): 0.01 µM; inhibition (Plasmodium falciparum [21]): Series known to be active
COc1ccc(-c2cc(NC(=O)c3ccc(F)cc3Cl)ccc2OC)cc1,,50,25,,67.7,,,,,,,,,,> 100,19,3.13,,
O=C(COc1cccc(F)c1)Nc1nc(-c2ccccn2)cs1,50,50,19,> 50,27.5,37,37,25,37,19,> 50,50,19,12.5,,2.3,1.2,84.4,
Cc1cc(Nc2ccc(C(F)(F)F)cc2)n2ccnc2n1,,,,,,,,,,,,,,,,,,,inhibition (Plasmodium berghei): Series known to be active; IC50 (Plasmodium falciparum [22]): 0.36 µM; IC50 (Plasmodium falciparum [20]): 0.38 µM; inhibition (Plasmodium falciparum [21]): Series known to be inactive

# Reference: ChEMBL document CHEMBL3832761, “MMV Pathogen Box Bioactivity Data” (2017)
